Results as given in ChEMBL document CHEMBL1130987, “The asymmetric synthesis and in vitro characterization of succinyl mercaptoalcohol and mercaptoketone inhibitors of matrix metalloproteinases” (Bioorg Med Chem Lett, 1998).
pIC50: −log10 of the molar value.

Columns and labels:
[1] = biological target: T1, Interstitial collagenase (Homo sapiens, UniProt P03956); assay: Inhibition of matrix metalloprotease-1, Collagenase-1
T1 sequence (P03956 whole entry): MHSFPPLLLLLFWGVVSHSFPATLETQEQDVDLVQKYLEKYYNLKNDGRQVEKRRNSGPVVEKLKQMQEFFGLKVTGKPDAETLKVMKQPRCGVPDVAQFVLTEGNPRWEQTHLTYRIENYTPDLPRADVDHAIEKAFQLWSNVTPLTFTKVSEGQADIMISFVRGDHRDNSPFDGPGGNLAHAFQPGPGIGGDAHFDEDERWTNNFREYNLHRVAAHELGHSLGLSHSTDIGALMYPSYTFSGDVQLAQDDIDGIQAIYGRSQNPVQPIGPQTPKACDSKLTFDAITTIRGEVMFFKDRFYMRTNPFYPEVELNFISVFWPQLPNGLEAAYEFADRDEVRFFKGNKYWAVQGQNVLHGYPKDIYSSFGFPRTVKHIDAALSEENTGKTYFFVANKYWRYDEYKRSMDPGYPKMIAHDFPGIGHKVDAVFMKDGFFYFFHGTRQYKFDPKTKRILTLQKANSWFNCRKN

[2] = biological target: Matrix metalloproteinase-9 (Homo sapiens, UniProt P14780); assay: Inhibition of matrix metalloprotease-9, gelatinase-B
[3] = biological target: Stromelysin-1 (Homo sapiens, UniProt P08254); assay: Inhibition of matrix metalloprotease-3, stromelysin-1
Chain of Stromelysin-1 (P08254 whole entry): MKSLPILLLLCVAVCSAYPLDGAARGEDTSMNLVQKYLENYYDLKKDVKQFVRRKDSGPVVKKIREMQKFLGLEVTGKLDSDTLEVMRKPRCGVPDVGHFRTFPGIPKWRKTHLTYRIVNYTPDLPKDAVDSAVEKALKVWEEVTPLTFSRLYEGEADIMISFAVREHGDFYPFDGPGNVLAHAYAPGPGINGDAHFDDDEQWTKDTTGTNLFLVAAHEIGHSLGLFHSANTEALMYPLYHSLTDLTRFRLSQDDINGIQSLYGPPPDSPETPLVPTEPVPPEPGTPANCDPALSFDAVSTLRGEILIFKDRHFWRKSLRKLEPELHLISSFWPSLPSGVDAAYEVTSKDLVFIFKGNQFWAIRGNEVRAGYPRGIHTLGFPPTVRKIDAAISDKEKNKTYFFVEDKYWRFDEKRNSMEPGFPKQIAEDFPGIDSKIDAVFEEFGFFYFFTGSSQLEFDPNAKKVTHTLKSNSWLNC

Chain of Matrix metalloproteinase-9 (P14780 whole entry): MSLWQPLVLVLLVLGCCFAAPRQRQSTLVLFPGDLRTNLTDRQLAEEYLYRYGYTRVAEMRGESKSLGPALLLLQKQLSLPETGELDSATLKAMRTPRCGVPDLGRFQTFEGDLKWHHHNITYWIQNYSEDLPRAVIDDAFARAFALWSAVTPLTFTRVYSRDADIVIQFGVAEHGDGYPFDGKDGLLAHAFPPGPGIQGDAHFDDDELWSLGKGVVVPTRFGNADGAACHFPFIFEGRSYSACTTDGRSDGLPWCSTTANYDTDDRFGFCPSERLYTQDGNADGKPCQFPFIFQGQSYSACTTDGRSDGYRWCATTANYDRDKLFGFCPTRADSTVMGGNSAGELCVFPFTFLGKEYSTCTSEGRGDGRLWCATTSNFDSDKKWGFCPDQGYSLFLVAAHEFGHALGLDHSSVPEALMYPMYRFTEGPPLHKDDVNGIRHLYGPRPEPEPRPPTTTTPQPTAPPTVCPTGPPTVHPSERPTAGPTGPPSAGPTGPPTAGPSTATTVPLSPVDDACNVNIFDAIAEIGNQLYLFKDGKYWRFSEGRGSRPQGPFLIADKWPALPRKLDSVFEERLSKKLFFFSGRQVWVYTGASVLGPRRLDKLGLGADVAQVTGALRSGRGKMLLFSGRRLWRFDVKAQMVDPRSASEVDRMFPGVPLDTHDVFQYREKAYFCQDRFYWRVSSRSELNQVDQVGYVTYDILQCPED

SMILES	pIC50 [1]	pIC50 [2]	pIC50 [3]
CNC(=O)[C@@H](NC(=O)[C@H](CC(C)C)C[C@@H](O)CS)C(C)(C)C	7.34	6.60	5.43
CCCCCCC[C@H](C[C@H](O)CS)C(=O)N[C@H](C(=O)NC)C(C)(C)C	8.30	9.85	8.05
CCCCCCC[C@H](CC(=O)CS)C(=O)N[C@H](C(=O)NC)C(C)(C)C	8.00	9.85	8.10
CCCCCCC[C@H](CC(=O)CS)C(=O)N[C@@H](CC(C)C)C(=O)NC(=O)C(CC(C)C)NCC (stereo not given in full)	< 5.00	7.70	7.44
CNC(=O)[C@@H](NC(=O)[C@H](CC(C)C)C[C@H](O)CS)C(C)(C)C	7.96	8.10	6.33
CCCCCCC[C@H](C[C@@H](O)CS)C(=O)N[C@H](C(=O)NC)C(C)(C)C	6.85	7.92	6.37
CNC(=O)[C@@H](NC(=O)[C@@H](CC(=O)CS)CC(C)C)C(C)(C)C	7.96	8.10	6.32
CCCCCCC[C@H](C[C@H](O)CS)C(=O)N[C@@H](CC(C)C)C(=O)NC(=O)C(CC(C)C)NCC (stereo not given in full)	< 5.40	7.62	7.41
CNC(=O)[C@@H](NC(=O)[C@@H](CC(=O)NO)CC(C)C)C(C)(C)C [RO-319790]	8.30	–	–
